Experimental data taken from PMC7094222 (Febs Letters, 2015).

Experiments:
Type in all cases: biochemical, Human Coxsackievirus B3
CVB3 3C^pro [1] = target: T1, CVB3 3C^pro (Coxsackievirus B3, UniProt P03313); assay: FRET-based enzyme assay of CVB3 3C^pro
CVB3 3C^pro [2] = target: T1, CVB3 3C^pro; assay: Reversibility test by large and rapid dilution of enzyme-inhibitor complex; details: 50-fold IC50 pre-incubated 30 min at 35 °C, then diluted 50-fold
CVB3 3C^pro [3] = target: T1, CVB3 3C^pro; assay: Enzyme kinetics study

T1 sequence (P03313 1541-1723): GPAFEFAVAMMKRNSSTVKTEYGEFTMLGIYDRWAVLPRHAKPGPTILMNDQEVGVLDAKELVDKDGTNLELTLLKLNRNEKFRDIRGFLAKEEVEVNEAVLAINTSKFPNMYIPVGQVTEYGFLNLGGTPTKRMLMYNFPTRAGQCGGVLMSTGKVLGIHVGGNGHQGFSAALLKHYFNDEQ

Q: How did the IC50 (CVB3 3C^pro [1]) turn out when `NC(CO)C(=O)N/N=C\c1ccc(O)c(O)c1O` (centres unmarked) [8a, (Z)-2-amino-3-hydroxy-N'-(2,3,4-trihydroxybenzylidene)propanehydrazide] was run?
A: 2.72 µM

Q: How did the inhibition at 50 µM (CVB3 3C^pro [1]; read-out: % Inhibition 50 μM) turn out when `NC(CO)C(=O)NNCc1ccc(O)c(O)c1` (centres unmarked) [9e, 2-amino-N'-(3,4-dihydroxybenzyl)-3-hydroxypropanehydrazide] was run?
A: 56.2%

Q: Which results are given for `NC(CO)C(=O)NNCc1ccc(O)c(O)c1O` (centres unmarked) [Benserazide, 2-amino-3-hydroxy-N'-(2,3,4-trihydroxybenzyl)propanehydrazide]?
A: reversibility of inhibition (CVB3 3C^pro [2]): reversible pattern; Ki (CVB3 3C^pro [3]): 4.7 µM; mechanism of the inhibition (CVB3 3C^pro [3]; inhibitor 0–10 μM, substrate 0–400 μM, V max reduced without a change in K m): non-competitive inhibitor
